# Measured values reported in patent publication US9096559B2, “4-carboxybenzylamino derivatives as histone deacetylase inhibitors” (Merck Sharp & Dohme Corp., priority 2007, dated 2015).
# Read-outs that look alike come from different tables or passages of the source.
# Tests used:
# [1] = tested on: HCT-116; assay: HCT-116 anti-proliferation (GI50); assay type: cell-based, human; conditions: means of n ≧ 2 experiments
# Method: (§1) The novel compounds of the present invention were tested for their ability to inhibit proliferation of the human cervical cancer (HeLa) and colon carcinoma (HCT116) cells.
# In this assay, also referred to as the Vialight Assay, cellular ATP levels are measured as a means of quantifying cellular proliferation. This assay makes use of a bioluminescent method from Cambrex (ViaLight PLUS, cat. #LT07-121). In the presence of ATP, luciferase converts luciferin to oxyluciferin and light. The amount of light produced (emission at 565 nm) is measured and correlates with a relative amount of proliferation. Human cervical cancer (HeLa) or colon carcinoma (HCT116) cells were incubated with vehicle or increasing concentrations of compound for 48, 72 or 96 hours. Cell proliferation was quantified by adding the cell lysis reagent (provided in the Vialight assay kit) directly to culture wells, followed by addition of the ATP-monitoring reagent (containing luciferase/luciferin). The amount of light produced is then measured (emission at 565 nm). The quantity of light produced, as measured by […], is directly proportional to the number of living cells in culture. […]
# [2] = biological target: histone deacetylase, subtype 1 (HDAC1) (Homo sapiens (Human), UniProt Q13547); assay: HDAC1-Flag in vitro deacetylation assay; assay type: biochemical
# Procedure, shortened: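 Enzyme: Flag epitope-tagged human HDAC1 complex immunopurified from stably expressing mammalian cells. Substrate carries an acetylated lysine side chain; deacetylation yields a fluorophore proportional to activity, measured as fluorescence.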
# [3] = biological target: CYP2D6 (Homo sapiens (Human), UniProt P10635); assay: CYP inhibition potential, CYP2D6; assay type: in vitro ADME
# From the text: (§2) The ancillary pharmacology profiles of the SHI-1:2 carbamate analogs were also gathered to investigate off-target activities (Table 12).
# [4] = biological target: CYP3A4 (Homo sapiens (Human), UniProt P08684); assay: CYP inhibition potential, CYP3A4; assay type: in vitro ADME
# From the text: as §2
# [5] = biological target: IKr ion channel (Homo sapiens (Human), UniProt Q12809); assay: Displacement binding assay using radio-labeled MK-499
# From the text: as §2
# [6] = biological target: CYP2C9 (Homo sapiens (Human), UniProt P11712); assay: CYP inhibition potential, CYP2C9; assay type: in vitro ADME
# From the text: as §2
# [7] = tested on: human cervical cancer (HeLa) and colon carcinoma (HCT116) cells; assay: ATP (Vialight) cell proliferation assay, 72 hr; assay type: cell-based; conditions: IP = inflection point, cell line not given, read-out: Prol-72 hr IP (inflection point)
# Method: as §1
# In this assay, also referred to as the Vialight Assay, cellular ATP levels are measured as a means of quantifying cellular proliferation. This assay makes use of a bioluminescent method from Cambrex (ViaLight PLUS, cat. #LT07-121). In the presence of ATP, luciferase converts luciferin to oxyluciferin and light. The amount of light produced (emission at 565 nm) is measured and correlates with a relative amount of proliferation. Human cervical cancer (HeLa) or colon carcinoma (HCT116) cells were incubated with vehicle or increasing concentrations of compound for 48, 72 or 96 hours. Cell proliferation was quantified by adding the cell lysis reagent (provided in the Vialight assay kit) directly to culture wells, followed by addition of the ATP-monitoring reagent (containing luciferase/luciferin). The amount of light produced is then measured (emission at 565 nm). The quantity of light produced, as measured by […], is directly proportional to the number of living cells in culture.
# [8] = means of n ≧ 2 experiments, read-out: HDAC1 IC50
# [9] = IP = inflection point, read-out: HDAC1 IP (inflection point)
# Chain of CYP2C9 (P11712 whole entry): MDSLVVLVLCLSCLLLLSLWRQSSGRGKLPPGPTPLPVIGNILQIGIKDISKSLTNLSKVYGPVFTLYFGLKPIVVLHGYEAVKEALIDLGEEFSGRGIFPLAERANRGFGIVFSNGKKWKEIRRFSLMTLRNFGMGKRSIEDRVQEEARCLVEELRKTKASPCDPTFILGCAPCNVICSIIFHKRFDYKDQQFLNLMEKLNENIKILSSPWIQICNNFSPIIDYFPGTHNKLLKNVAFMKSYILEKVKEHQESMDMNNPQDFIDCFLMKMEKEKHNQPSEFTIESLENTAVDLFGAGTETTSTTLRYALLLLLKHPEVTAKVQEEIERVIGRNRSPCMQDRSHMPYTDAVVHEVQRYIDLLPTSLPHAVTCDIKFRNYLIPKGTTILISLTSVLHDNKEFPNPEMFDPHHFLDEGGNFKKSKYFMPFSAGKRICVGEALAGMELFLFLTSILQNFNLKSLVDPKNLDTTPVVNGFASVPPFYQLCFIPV
# Chain of CYP2D6 (P10635 whole entry): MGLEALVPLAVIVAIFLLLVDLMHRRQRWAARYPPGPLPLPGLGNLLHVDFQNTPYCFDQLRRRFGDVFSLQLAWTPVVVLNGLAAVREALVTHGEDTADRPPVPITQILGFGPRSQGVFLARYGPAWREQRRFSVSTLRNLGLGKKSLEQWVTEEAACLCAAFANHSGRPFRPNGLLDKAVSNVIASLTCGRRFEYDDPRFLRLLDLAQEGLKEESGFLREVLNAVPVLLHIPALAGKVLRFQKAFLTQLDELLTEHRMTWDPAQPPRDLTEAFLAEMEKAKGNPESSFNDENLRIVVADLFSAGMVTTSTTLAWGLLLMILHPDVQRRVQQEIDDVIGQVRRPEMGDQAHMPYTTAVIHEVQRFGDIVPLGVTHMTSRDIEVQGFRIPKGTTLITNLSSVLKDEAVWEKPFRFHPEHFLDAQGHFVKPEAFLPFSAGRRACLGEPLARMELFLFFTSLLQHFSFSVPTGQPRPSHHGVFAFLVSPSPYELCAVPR
# Chain of IKr ion channel (Q12809 whole entry): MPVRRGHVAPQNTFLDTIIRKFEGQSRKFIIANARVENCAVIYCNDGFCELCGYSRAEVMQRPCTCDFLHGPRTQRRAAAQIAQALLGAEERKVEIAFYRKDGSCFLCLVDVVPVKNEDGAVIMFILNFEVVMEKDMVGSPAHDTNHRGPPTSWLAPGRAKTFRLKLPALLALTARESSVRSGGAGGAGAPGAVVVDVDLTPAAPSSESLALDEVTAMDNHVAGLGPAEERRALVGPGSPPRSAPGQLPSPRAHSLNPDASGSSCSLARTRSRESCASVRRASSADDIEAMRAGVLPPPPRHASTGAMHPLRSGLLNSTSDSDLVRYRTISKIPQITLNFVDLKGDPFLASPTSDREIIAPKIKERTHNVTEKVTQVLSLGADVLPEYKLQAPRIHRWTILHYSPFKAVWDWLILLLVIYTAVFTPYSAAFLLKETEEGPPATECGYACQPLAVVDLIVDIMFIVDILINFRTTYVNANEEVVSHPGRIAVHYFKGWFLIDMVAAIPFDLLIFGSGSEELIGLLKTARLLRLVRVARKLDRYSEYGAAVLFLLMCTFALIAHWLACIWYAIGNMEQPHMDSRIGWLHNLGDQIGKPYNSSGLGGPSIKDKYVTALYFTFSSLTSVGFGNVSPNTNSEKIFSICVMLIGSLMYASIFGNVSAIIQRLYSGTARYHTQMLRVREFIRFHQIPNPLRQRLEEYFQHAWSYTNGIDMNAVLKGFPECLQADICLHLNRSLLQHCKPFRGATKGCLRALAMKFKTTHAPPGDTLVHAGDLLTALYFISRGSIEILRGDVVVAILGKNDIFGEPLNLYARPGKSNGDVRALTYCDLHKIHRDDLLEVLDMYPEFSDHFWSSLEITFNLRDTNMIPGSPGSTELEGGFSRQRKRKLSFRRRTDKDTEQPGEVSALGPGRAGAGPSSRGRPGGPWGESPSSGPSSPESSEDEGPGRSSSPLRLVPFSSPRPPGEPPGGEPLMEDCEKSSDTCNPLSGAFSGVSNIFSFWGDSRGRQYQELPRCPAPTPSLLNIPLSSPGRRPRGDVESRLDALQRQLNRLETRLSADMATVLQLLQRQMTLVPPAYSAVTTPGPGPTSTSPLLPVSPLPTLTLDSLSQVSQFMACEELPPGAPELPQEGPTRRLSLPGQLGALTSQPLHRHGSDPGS
# Chain of histone deacetylase, subtype 1 (HDAC1) (Q13547 whole entry): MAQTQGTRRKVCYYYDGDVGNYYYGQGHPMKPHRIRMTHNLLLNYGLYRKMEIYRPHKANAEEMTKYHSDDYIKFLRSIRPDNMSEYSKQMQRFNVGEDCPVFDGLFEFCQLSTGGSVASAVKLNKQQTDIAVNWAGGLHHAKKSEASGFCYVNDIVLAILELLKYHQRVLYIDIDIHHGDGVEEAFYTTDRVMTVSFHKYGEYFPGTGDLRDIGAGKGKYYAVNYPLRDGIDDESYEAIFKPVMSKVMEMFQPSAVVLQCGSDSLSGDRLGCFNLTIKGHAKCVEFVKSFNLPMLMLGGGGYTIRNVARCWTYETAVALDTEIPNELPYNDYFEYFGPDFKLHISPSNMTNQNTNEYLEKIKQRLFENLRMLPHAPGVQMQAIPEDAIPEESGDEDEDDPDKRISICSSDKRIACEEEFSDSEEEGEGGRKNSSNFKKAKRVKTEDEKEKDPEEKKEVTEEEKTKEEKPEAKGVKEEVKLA
# Chain of CYP3A4 (P08684 whole entry): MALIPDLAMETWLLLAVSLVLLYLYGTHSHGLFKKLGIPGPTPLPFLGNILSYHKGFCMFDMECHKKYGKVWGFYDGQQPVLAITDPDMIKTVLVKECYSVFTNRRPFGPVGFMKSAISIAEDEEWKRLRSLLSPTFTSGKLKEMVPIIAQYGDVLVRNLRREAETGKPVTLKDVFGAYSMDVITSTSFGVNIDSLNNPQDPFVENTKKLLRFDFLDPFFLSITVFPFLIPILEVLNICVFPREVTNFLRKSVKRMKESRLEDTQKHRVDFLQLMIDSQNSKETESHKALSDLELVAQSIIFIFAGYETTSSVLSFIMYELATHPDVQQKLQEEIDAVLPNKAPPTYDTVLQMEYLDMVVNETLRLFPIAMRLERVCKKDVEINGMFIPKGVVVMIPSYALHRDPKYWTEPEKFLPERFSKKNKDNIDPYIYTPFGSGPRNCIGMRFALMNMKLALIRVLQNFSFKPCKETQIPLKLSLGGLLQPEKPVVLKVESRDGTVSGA
Structure (SMILES),GI50 [1] [nM],"IC50 [2, 9] [nM]",IC50 [7] [nM],further results
"CN(C)S(=O)(=O)NCc1ccc(C(=O)Nc2cc(-c3cccs3)ccc2N)cc1 [Example 60, N-[2-amino-5-(2-thienyl)phenyl]-4-({[(dimethylamino)sulfonyl]amino}methyl)benzamide]",–,17,260,–
"Nc1ccc(-c2ccccc2)cc1NC(=O)c1ccc(CNC(=O)[C@@H]2CCCN2)cc1 [Example 58, (2S)-N-(4-{[(4-aminobiphenyl-3-yl)amino]carbonyl}benzyl)pyrrolidine-2-carboxamide]",–,24,380,–
"Nc1ccc(-c2ccsc2)cc1NC(=O)c1ccc(CNC(=O)OCc2cccnc2)cc1 [Example 4, pyridin-3-ylmethyl {[4-({[2-amino-5-(3-thienyl)phenyl]amino}carbonyl)phenyl]methyl}carbamate]",–,5.8,370,–
"O=C(NCc1ccc(C(=O)Nc2cc(-c3cccnc3)ccc2O)cc1)OCc1cccnc1 [Example 6, pyridin-3-ylmethyl[(4-{[(2-hydroxy-5-pyridin-3-ylphenyl)amino]carbonyl}phenyl)methyl]carbamate]",–,16,1000,–
"Nc1ccc(-c2cccs2)cc1NC(=O)c1ccc(CNC(=O)OCc2ccccc2)cc1 [Example 22, phenylmethyl {[4-({[2-amino-5-(2-thienyl)phenyl]amino}carbonyl)phenyl]methyl}carbamate]",–,53,320,–
"CC(C)(C)C(=O)NCc1ccc(C(=O)Nc2cc(-c3ccccc3)ccc2N)cc1 [Example 28, N-(4-aminobiphenyl-3-yl)-4-{[(2,2-dimethylpropanoyl)amino]methyl}benzamide]",–,25,260,–
"CCCOC(=O)NCc1ccc(C(=O)Nc2cc(-c3ccccc3)ccc2N)cc1 [Example 12, propyl[(4-{[(4-aminobiphenyl-3-yl)amino]carbonyl}phenyl)methyl]carbamate]",–,29,360,–
"Nc1ccc(-c2ccccc2)cc1NC(=O)c1ccc(CN2C(=O)OC[C@H]2c2ccccc2)cc1 [Example 122, N-(4-aminobiphenyl-3-yl)-4-{[(4R)-2-oxo-4-phenyl-1,3-oxazolidin-3-yl]methyl}benzamide]",–,58,1100,–
"Cc1csc(-c2ccc(N)c(NC(=O)c3ccc(CNc4ccncc4)cc3)c2)c1 [Example 69, N-[2-amino-5-(4-methyl-2-thienyl)phenyl]-4-[(4-pyridinylamino)methyl]benzamide]",–,15,9700,–
"Nc1ccc(-c2cccs2)cc1NC(=O)c1ccc(CNC(=O)Cc2ccncc2)cc1 [Example 55, N-[2-amino-5-(2-thienyl)phenyl]-4-{[(pyridin-4-ylacetyl)amino]methyl}benzamide]",–,18,160,–
"Nc1ccc(-c2cccs2)cc1NC(=O)c1ccc(CNC(=O)Cc2ccccn2)cc1 [Example 54, N-[2-amino-5-(2-thienyl)phenyl]-4-{[(pyridin-2-ylacetyl)amino]methyl}benzamide]",–,12,160,–
"Nc1ccc(-c2ccccc2)cc1NC(=O)c1ccc(CNC(=O)C2CCCC2)cc1 [Example 33, N-(4-aminobiphenyl-3-yl)-4-{[(cyclopentylcarbonyl)amino]methyl}benzamide]",–,21,200,–
"CC(C)(C)C(=O)NCc1ccc(C(=O)Nc2cc(-c3cccs3)ccc2N)cc1 [Example 41, N-[2-amino-5-(2-thienyl)phenyl]-4-{[(2,2-dimethylpropanoyl)amino]methyl}benzamide]",–,16,170,–
"Nc1ccc(-c2cccs2)cc1NC(=O)c1ccc(CNCC(=O)O)cc1 [Example 124, {[4-({[2-amino-5-(2-thienyl)phenyl]amino}carbonyl)benzyl]amino}acetic acid]",–,34,> 20000,–
"Nc1ccc(-c2ccccc2)cc1NC(=O)c1ccc(CNC(=O)Oc2ccccc2)cc1 [Example 14, phenyl[(4-{[(4-aminobiphenyl-3-yl)amino]carbonyl}phenyl)methyl]carbamate]",–,320,1400,–
"Nc1ccc(-c2ccccc2)cc1NC(=O)c1ccc(CN2C(=O)OC[C@@H]2Cc2ccccc2)cc1 [Example 121, N-(4-aminobiphenyl-3-yl)-4-{[(4S)-2-oxo-4-(phenylmethyl)-1,3-oxazolidin-3-yl]methyl}benzamide]",–,96,1400,–
"Nc1ccc(-c2cccs2)cc1NC(=O)c1ccc(CNC(=O)Cc2cccnc2)cc1 [Example 49, N-[2-amino-5-(2-thienyl)phenyl]-4-{[(pyridin-3-ylacetyl)amino]methyl}benzamide]",–,10,170,–

# Further lines, with some results ahead:
GI50 [1] [nM],"IC50 [2, 9] [nM]",IC50 [7] [nM],Structure (SMILES),further results
220,–,–,CCCC(=O)NCc1ccc(C(=O)Nc2cc(-c3ccccc3)ccc2N)cc1 [Example 14g],"IC50 [2, 8]: 10 nM; % CYP Inhibition @ 10 μM 2D6 [3]: 28%; % CYP Inhibition @ 10 μM 3A4 [4]: 33%; % MK-499 Binding Inhibition @ 10 μM [5]: 38%; % CYP Inhibition @ 10 μM 2C9 [6]: 27%"
435,–,–,Nc1ccc(-c2ccccc2)cc1NC(=O)c1ccc(CNC(=O)OCc2ccccn2)cc1 [Example 14b],"IC50 [2, 8]: 8 nM; % CYP Inhibition @ 10 μM 2D6 [3]: 29%; % CYP Inhibition @ 10 μM 3A4 [4]: 38%; % MK-499 Binding Inhibition @ 10 μM [5]: 51%; % CYP Inhibition @ 10 μM 2C9 [6]: 67%"
337,–,–,Nc1ccc(-c2ccccc2)cc1NC(=O)c1ccc(CNC(=O)CCc2cccnc2)cc1 [Example 14a],"IC50 [2, 8]: 11 nM; % CYP Inhibition @ 10 μM 2D6 [3]: 25%; % CYP Inhibition @ 10 μM 3A4 [4]: 65%; IC50 [5]: 3700 nM; % CYP Inhibition @ 10 μM 2C9 [6]: 73%"
230,–,–,COC(=O)NCc1ccc(C(=O)Nc2cc(-c3ccccc3)ccc2N)cc1 [Example 14f],% CYP Inhibition @ 10 μM 2D6 [3]: 49%; % CYP Inhibition @ 10 μM 3A4 [4]: 23%; % MK-499 Binding Inhibition @ 10 μM [5]: 28%; % CYP Inhibition @ 10 μM 2C9 [6]: 46%
225,–,–,Nc1ccc(-c2ccccc2)cc1NC(=O)c1ccc(CNC(=O)OCc2cccnc2)cc1 [Example 2a],–
150,–,–,CCC(=O)NCc1ccc(C(=O)Nc2cc(-c3ccccc3)ccc2N)cc1 [Example 14h],"IC50 [2, 8]: 10 nM; % CYP Inhibition @ 10 μM 2D6 [3]: 38%; % CYP Inhibition @ 10 μM 3A4 [4]: 30%; % MK-499 Binding Inhibition @ 10 μM [5]: 24%; % CYP Inhibition @ 10 μM 2C9 [6]: 28%"
335,–,–,Nc1ccc(-c2ccccc2)cc1NC(=O)c1ccc(CNC(=O)C2CCCCC2)cc1 [Example 14i],"IC50 [2, 8]: 20 nM; % CYP Inhibition @ 10 μM 2D6 [3]: 17%; % CYP Inhibition @ 10 μM 3A4 [4]: 12%; % MK-499 Binding Inhibition @ 10 μM [5]: 30%; % CYP Inhibition @ 10 μM 2C9 [6]: 32%"
230,–,–,CCOC(=O)NCc1ccc(C(=O)Nc2cc(-c3ccccc3)ccc2N)cc1 [Example 14e],"IC50 [2, 8]: 13 nM; % CYP Inhibition @ 10 μM 2D6 [3]: 26%; % CYP Inhibition @ 10 μM 3A4 [4]: 22%; % MK-499 Binding Inhibition @ 10 μM [5]: 40%; % CYP Inhibition @ 10 μM 2C9 [6]: 35%"
